# Measured values reported in patent US20080104718A1, “Transgenic Non-Human Animal Models of Ischemia-Reperfusion Injury and Uses Thereof” (UNIVERSITY OF ROCHESTER, priority 2004, published 2008).
# Legend:
# p90RSK = p90RSK in vitro kinase assay on heart lysates of STZ-injected mice; assay type: in vivo, mouse
# Method: Heart powder was homogenized with 3 vol of lysis buffer and centrifuged at 14,000 g (4° C. for 30 min), and protein concentration were determined. p90RSK was immunoprecipitated through the incubation of 1000 μg protein for each sample with 3 μl of the rabbit polyclonal anti-p90RSK (Santa Cruz, Santa Cruz, Calif.) antibody for 3 hrs, the addition of 40 μl of a 1:1 slurry of protein A/Sepharose beads to the extract/antibody mixture, and then incubation for 1 hour at 4° C. This complex was washed, twice each, in cell lysis buffer described above, LiCl buffer (500 mM LiCl 100 mM Tris-HCl (pH 7.6), 0.1% Triton X-100, 1 mM DTT) and wash buffer (20 mM HEPES, pH 7.2, 2 mM EGTA, 100 μM Na3VO4, 10 mM MgCl2, 1 mM DTT, 0.1% Triton X-100). After the final wash and pelleting, S6 kinase substrate peptide was used to determine p90RSK kinase activity, as previously described (Cavet et al., “14-3-3beta is a p90 Ribosomal S6 Kinase (RSK) Isoform 1-Binding Protein That Negatively Regulates RSK Kinase Activity,” J Biol Chem 278(20):18376-18383 (2003), which is hereby incorporated by reference in its entirety). The in vitro kinase assay was performed according to manufacture's protocol using a long S6 kinase substrate peptide (Upstate) to determine radiolabeled phosphate incorporation by scintillation counter. […]
# [1] = Fasting blood glucose in STZ-induced diabetic mice; assay type: in vivo, mouse; settings: 2 weeks after STZ injection (vehicle 107±8 mg/dl)
# Source text: After a 6 hrs fast, basal blood samples were colleted from the tip of the tail. All blood samples were immediately measured for glucose using Prestige IQ, Blood Glucose Monitoring System (Home Diagnosis, Inc, Ft. Lauderdale, Fla.).
# Previously, it was reported that PKCP activation is critical in H2O2-mediated p90RSK activation. […] Since the critical role of PKCP activation in diabetes has been extensively studied, it was investigated whether p90RSK is activated in Streptozotocin (STZ)-induced hyperglycemic mice. The current study used STZ-induced diabetic mice, a known useful model for the study of diabetes (Aizawa-Abe et al., “Pathophysiological Role of Leptin in Obesity-related Hypertension,” J Clin Invest 105(9):1243-1252 (2000), which is hereby incorporated by reference in its entirety).
# PRECE = assay: Relative quantitative RT-PCR of PRECE mRNA in hearts of STZ-injected mice; assay type: in vivo, mouse; settings: STZ injection, NLC mice, after 2 weeks
# Method: Total RNA isolation, first-strand cDNA synthesis, and relative quantitative reverse transcription-polyinerase chain reaction (RT-PCR) using Ambion's Competimer technology were performed as we described (Aizawa et al., “Role of Phosphodiesterase 3 in NO/cGMP-Mediated Anti-inflammatory Effects in Vascular Smooth Muscle Cells,” Circ Res 93(5):406-413 (2003), which is hereby incorporated by reference in its entirety). Ambion's competimer technology allows one to modulate the amplification of 18S rRNA in the same linear range as the RNAs under study when amplified under the same condition. The following primers were used for PCR analysis: […]
# H9c2 cells = assay: Anoxia/reoxygenation (A/R)-induced apoptosis in transfected H9c2 cells (TUNEL); assay type: cell-based, rat
# Source text: Ad.LacZ (LACZ gene in an adenoviral vector) and Ad.DN-RSK were transduced into neonatal rat cardiomyocytes at varying MOI, as shown in FIG. 1. There was a concentration-dependent expression of DN-RSK (Fire 1) with expression greater than endogenous RSK at 100 MOI. WT-RSK, WT-NHE1, and NHE S703A cDNAs were inserted into pLL3.7-IRES-EGFP to make a pLL3.7-WT-RSK-IRES-EGFP expression vector. These vectors were transfected into H9c2 rat embryonic myoblasts using lipofectamine 2000 (Invitrogen, Carlsbad, Calif.). Cells were cultured for 24 hr to allow sufficient protein expression, then cells were exposed to anoxia. Cells were placed for 12 hr in the anoxia chamber (5% CO2 and 95% N2) and after 24 hr, reoxygenation was performed by changing the medium and placing cells in an air incubator (5% CO2 and 95% air). After 24 hr cell death was detected by TUNEL and by cell death detection ELISA kit (Roche Applied Sciences, Indianapolis, Ind.). Only transfected cells identified by EGFP expression were counted to compare the effects of vector alone (pLL3.7-IRES-EGFP) vs. WT-RSK, WT-NHE1 and MHE1-S703A (pLL3.7-WT-RSK-IRES-EGFP, pLL3.7-WT-NHE1-IRES-EGFP and pLL3.7-NHE1-S703A-IRES-EGFP).
# NHE1 [2] = target: T1, NHE1 (Rattus norvegicus, UniProt P26431); assay: NHE1 activity (rate of pHi recovery after acid load, BCECF-AM) in neonatal rat cardiomyocytes; assay type: cell-based; settings: 100 μM H2O2
# T1 construct: Primary cultures of cardiac myocytes were prepared from ventricles of 1 to 3-day-old neonatal Wistar rats; endogenous in cells; host or cells: primary neonatal Wistar rat ventricular cardiomyocytes, transduced with Ad.LacZ or Ad.DN-RSK; NHE1 itself not transfected
# T1 sequence (P26431 whole entry): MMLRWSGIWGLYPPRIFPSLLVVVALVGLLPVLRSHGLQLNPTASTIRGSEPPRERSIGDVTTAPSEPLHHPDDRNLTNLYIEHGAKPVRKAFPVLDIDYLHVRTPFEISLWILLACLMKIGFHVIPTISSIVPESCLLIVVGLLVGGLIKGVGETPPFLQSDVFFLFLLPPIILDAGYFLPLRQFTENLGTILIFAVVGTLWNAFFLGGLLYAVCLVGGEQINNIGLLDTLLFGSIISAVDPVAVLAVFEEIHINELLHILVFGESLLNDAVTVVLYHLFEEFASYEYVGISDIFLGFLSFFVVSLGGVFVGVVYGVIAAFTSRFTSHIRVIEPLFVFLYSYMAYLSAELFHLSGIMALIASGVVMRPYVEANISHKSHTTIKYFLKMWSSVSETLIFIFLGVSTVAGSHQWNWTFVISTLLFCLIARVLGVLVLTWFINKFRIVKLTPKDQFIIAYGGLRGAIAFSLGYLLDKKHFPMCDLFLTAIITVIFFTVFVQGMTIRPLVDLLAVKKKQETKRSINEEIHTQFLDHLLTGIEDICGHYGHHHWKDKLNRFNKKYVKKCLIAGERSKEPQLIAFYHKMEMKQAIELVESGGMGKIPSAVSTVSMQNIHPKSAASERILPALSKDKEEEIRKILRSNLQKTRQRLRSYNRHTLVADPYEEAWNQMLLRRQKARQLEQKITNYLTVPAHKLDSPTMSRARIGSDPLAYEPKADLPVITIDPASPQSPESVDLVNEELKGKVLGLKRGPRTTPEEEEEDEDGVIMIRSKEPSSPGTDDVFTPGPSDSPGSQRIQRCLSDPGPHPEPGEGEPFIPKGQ
# Method: Primary cultures of cardiac myocytes were prepared from ventricles of 1 to 3-day-old neonatal Wistar rats (Akimoto et al., “Heparin and Heparin Sulfate Block Angiotensin II-Induced Hypertrophy in Cultured Neonatal Rat Cardiomyocytes. A possible Role of Intrinsic Heparin-Like Molecules in Regulation of Cardiomyocyte Hypertrophy,” Circulation 93:810-816 (1996), which is hereby incorporated by reference in its entirety). Briefly, cells were dissociated by collagenase II (Worthington Biochem, NJ) from the ventricles and plated at a density of 1×10^5 cells/cm^2 on 25 mm collagen-coated coverslips in Dulbecco's modified Eagle's medium (DMEM) with 10% fetal bovine serum and 10% horse serum. After 6 hrs of plating the isolated cardiomyocytes, 10 μM cytosine arabinoside (Ara C) was added and the cells were cultured 24 hrs, after which the culture medium was changed to DMEM with 10 μM Ara C in 10% fetal bovine serum.
# Isolated neonatal cardiomyocytes were cultured on 25 mm glass coverslips. The intracellular pH indicator BCECF-AM was incubated with DMEM without FBS for 30 min at 37° C. (Ozkan et al., “A Rapid Method for Measuring Intracellular pH Using BCECF-AM,” Biochem Biophys Acta 1572: 143-148 (2002), which is hereby incorporated by reference in its entirety). […] BCECF-AM was excited at 490 and 440 nm, and the emission fluorescence recorded at 500 nm. […]
# [3] = tested on: isolated heart from WT-p90RSK-Tg mice and non-transgenic littermate control (NLC) mice; assay: Cardiac damage: CK and LDH release from the isolated heart after ischemia/reperfusion; set-up: species or system mouse; settings: captopril 50 μM pretreatment
# Method: Creatine kinase (CK) and lactate dehydrogenase (LDH) were measured by the University of Rochester, Department of Clinical Chemistry, and reported in clinical indices (units/L) as means ±S.D.
# For isolated heart from WT-p90RSK-Tg mice and non-transgenic littermate control (NLC) mice were studied using Langendorff preparation. Animals were anaesthetized with ketamine (50 mg/kg) and xylazine (2.5 mg/kg), i.p., and heparinized (5000 U/kg), i.p., to protect the heart against microthrombi. The chest was opened at the sternum and the heart, after cannulation with a 23 G phalanged stainless steel cannula, quickly removed. The heart was retrogradely perfused through the aorta in a non-circulating Langendorff apparatus with KH buffer (118 mM NaCl, 4.7 mM KCl, 1.2 mM MgSO4, 1.2 mM KH2PO4, 2.5 mM CaCl2, 25 mM NaHCO3, 0.5 mM Na-EDTA and 11 mM glucose) at a constant pressure of 80 mmHg. The buffer was saturated with 95% O2/5% CO2 (v/v, pH 7.4, 37° C.) for 50 min. A homemade water-filled balloon was inserted into the left ventricle through the left atrium and was adjusted to a left ventricular end-diastolic pressure of 5 mmHg during initial equilibration. The distal end of the catheter was connected to an ETH-200 Bridge Amplifier (CB Sciences, Inc) and PowerLab/200 (AD Instruments) data acquisition system via a pressure transducer (DELTRAN II, Utah Medical Products, Inc., Midvale, Utah). […]
# NHE1 [4] = target: NHE1 (Homo sapiens, UniProt P19634); settings: cited from earlier work; for mortality in patients experiencing myocardial infarction: clinical trials GUARDIAN and ESCAMI
# Chain of NHE1 (Homo sapiens, UniProt P19634) (P19634 whole entry): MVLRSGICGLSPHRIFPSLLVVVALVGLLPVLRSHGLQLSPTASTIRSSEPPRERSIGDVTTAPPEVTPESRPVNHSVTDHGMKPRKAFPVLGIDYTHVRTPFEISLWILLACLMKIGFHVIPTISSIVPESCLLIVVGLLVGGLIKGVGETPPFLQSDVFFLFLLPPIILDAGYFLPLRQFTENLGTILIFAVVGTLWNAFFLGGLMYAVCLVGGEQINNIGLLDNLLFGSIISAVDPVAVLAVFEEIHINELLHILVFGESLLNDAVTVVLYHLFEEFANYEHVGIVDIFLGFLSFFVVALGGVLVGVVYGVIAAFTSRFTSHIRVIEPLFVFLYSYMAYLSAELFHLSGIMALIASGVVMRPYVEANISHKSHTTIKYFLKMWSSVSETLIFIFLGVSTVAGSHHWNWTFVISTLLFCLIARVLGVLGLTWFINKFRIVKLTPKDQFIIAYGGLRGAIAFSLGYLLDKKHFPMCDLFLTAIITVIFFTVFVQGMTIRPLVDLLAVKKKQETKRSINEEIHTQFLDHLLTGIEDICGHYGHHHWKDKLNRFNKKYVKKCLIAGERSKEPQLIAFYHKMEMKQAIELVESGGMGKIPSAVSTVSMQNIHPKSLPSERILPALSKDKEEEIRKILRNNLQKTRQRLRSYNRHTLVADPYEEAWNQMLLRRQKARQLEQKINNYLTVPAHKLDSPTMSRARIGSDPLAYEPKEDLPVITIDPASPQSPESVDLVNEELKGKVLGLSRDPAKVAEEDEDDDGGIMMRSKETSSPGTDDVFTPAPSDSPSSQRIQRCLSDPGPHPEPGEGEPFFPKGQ
compound,measurement,setting,value
"CN(N=O)C(=O)N[C@H]1C(O)O[C@H](CO)[C@@H](O)[C@@H]1O (mixture of isomers) [STZ, Streptozotocin]",p90RSK activation (in vitro kinase assay),p90RSK; DN-p90RSK-Tg mice + STZ,8009±797 cpm
same,p90RSK activation (in vitro kinase assay),p90RSK; NLC mice + STZ,12991±1810 cpm
same,fasting blood glucose level,[1],224 ± 5 mg/dL
same,PRECE mRNA expression in heart,PRECE,increased
CCN(c1nc(N)c(C(=O)NC(=N)N)nc1Cl)C(C)C [EIPA],apoptosis,H9c2 cells; A/R + NHE-WT transfected H9c2 cells + EIPA,39±4%
same,apoptosis,H9c2 cells; EIPA 5 μM + A/R (12 hr/24 hr) + WT-RSK transfected H9c2 cells,29.9±5.2%
OO [H2O2],increase of NHE1 activity,NHE1 [2]; LacZ expressing cardiomyocytes,3 fold
same,NHE1 activity,NHE1 [2]; LacZ expressing cardiomyocytes (basal 0.16±0.02),0.49±0.13 pHi/min
C[C@H](CS)C(=O)N1CCC[C@H]1C(=O)O [captopril],release of CK and LDH,"[3]; NLC hearts, 40 min global ischemia and 25 min reperfusion",no beneficial effect
same,release of cardiac enzymes (CK and LDH),"[3]; WT-p90RSK-Tg hearts, 20 min ischemia and 25 min reperfusion",significantly reduced
CC(C)c1ccc(C(=O)NC(=N)N)cc1S(C)(=O)=O [cariporide],mortality in patients experiencing myocardial infarction,NHE1 [4],no significant reduction in mortality
same,improvement in LV function,NHE1 [4]; subgroup of patients who underwent coronary artery bypass grafting,25%
Cc1cc(-n2cccc2)c(S(C)(=O)=O)cc1C(=O)NC(=N)N [eniporide],mortality in patients experiencing myocardial infarction,NHE1 [4],no significant reduction in mortality
